Assay results from ChEMBL document CHEMBL4219203, “Design, synthesis and biological evaluation of seco-A-pentacyclic triterpenoids-3,4-lactone as potent non-nucleoside HBV inhibitors” (Bioorg Med Chem Lett, 2018).
Calls of active or inactive are those of the source. The calls are words filed in the database; no cut-off is given here.

Test system: Hepatitis B virus
Test: Antiviral activity against Hepatitis B virus infected in human HepG2.215 cells assessed as inhibition of HBsAg secretion after 3 days by ELISA
Type: functional, organism-based
Conditions: HepG2.2.15, 72 h

IC50 [µM]	Structure (SMILES)
321	CC1(C)CC[C@]2(C(=O)O)CC[C@]3(C)C(=CC(=O)[C@@H]4[C@@]5(C)CCC(=O)OC(C)(C)[C@@H]5CC[C@]43C)[C@@H]2C1
284	C[C@H]1[C@H](C)CC[C@]2(C(=O)O)CC[C@]3(C)C(=CC[C@@H]4[C@@]5(C)CCC(=O)OC(C)(C)[C@@H]5CC[C@]43C)[C@H]12
1360	CC1(C)CC[C@]2(C(=O)O)CC[C@]3(C)C(=CC[C@@H]4[C@@]5(C)CC[C@H](O)C(C)(C)[C@@H]5CC[C@]43C)[C@@H]2C1 [OLEANOLIC_ACID]
765	C[C@H]1OC(=O)CC[C@@H]2[C@]1(C)CC[C@H]1[C@@]2(C)CC[C@@]2(C)[C@@H]3CC(C)(C)CC[C@]3(C)CC[C@]12C [FRIEDELIN-3,4-LACTONE]
510	CC1(C)[C@@H](O)CC[C@]2(C)[C@H]3C(=O)C=C4[C@@H]5C[C@@](C)(C(=O)O)CC[C@]5(C)CC[C@@]4(C)[C@]3(C)CC[C@@H]12 [ENOXOLONE]
340	CC1(C)CC[C@@]23CC[C@]4(C)[C@@](OC2=O)([C@@H]3C1)[C@@H](O)C[C@@H]1[C@@](C)(CCC(=O)O)[C@H](C(C)(C)O)CC[C@]14C
406	C[C@H]1[C@H](C)CC[C@]2(C(=O)O)CC[C@]3(C)C(=CC[C@@H]4[C@@](C)(CCC(=O)O)[C@H](C(C)(C)O)CC[C@]43C)[C@H]12

Structure (SMILES)	IC50 [µM]
Nc1ccn([C@H]2CS[C@@H](CO)O2)c(=O)n1	917

Test system: Hepatitis B virus
Test: Antiviral activity against Hepatitis B virus infected in human HepG2.215 cells assessed as inhibition of HBeAg secretion by measuring FITC-labeled monoclonal mouse HBeAg antibody non-labeled cells level at 12.5 uM after 3 days by flow cytometry (reference value: 0.5%)
Type: functional
Conditions: HepG2.2.15, 72 h

Structure (SMILES)	inhibition at 12.5 µM [%]
CC1(C)CC[C@]2(C(=O)O)CC[C@]3(C)C(=CC(=O)[C@@H]4[C@@]5(C)CCC(=O)OC(C)(C)[C@@H]5CC[C@]43C)[C@@H]2C1	7.8

Test system: Hepatitis B virus
Test: Antiviral activity against Hepatitis B virus infected in human HepG2.215 cells assessed as inhibition of HBeAg secretion by measuring FITC-labeled monoclonal mouse HBeAg antibody non-labeled cells level at 25 uM after 3 days by flow cytometry (reference value: 0.5%)
Type: functional
Conditions: HepG2.2.15, 72 h

Structure (SMILES)	inhibition at 25 µM [%]
CC1(C)CC[C@]2(C(=O)O)CC[C@]3(C)C(=CC(=O)[C@@H]4[C@@]5(C)CCC(=O)OC(C)(C)[C@@H]5CC[C@]43C)[C@@H]2C1	33.5

Test system: Hepatitis B virus
Test: Antiviral activity against Hepatitis B virus infected in human HepG2.215 cells assessed as inhibition of HBeAg secretion by measuring FITC-labeled monoclonal mouse HBeAg antibody non-labeled cells level at 6.25 uM after 3 days by flow cytometry (reference value: 0.5%)
Type: functional
Conditions: HepG2.2.15, 72 h

Structure (SMILES)	inhibition at 6.25 µM [%]
CC1(C)CC[C@]2(C(=O)O)CC[C@]3(C)C(=CC(=O)[C@@H]4[C@@]5(C)CCC(=O)OC(C)(C)[C@@H]5CC[C@]43C)[C@@H]2C1	7.7

Test system: not listed separately
Test: Cytotoxicity against human HepG2.215 cells assessed as reduction in cell viability after 3 days by MTT assay
Type: cell-based, HepG2 2.2.15
Conditions: HepG2.2.15 cells

Structure (SMILES)	CC50 at 72 h [µM]
CC1(C)CC[C@]2(C(=O)O)CC[C@]3(C)C(=CC(=O)[C@@H]4[C@@]5(C)CCC(=O)OC(C)(C)[C@@H]5CC[C@]43C)[C@@H]2C1	583
C[C@H]1[C@H](C)CC[C@]2(C(=O)O)CC[C@]3(C)C(=CC[C@@H]4[C@@]5(C)CCC(=O)OC(C)(C)[C@@H]5CC[C@]43C)[C@H]12	406
CC1(C)CC[C@]2(C(=O)O)CC[C@]3(C)C(=CC[C@@H]4[C@@]5(C)CC[C@H](O)C(C)(C)[C@@H]5CC[C@]43C)[C@@H]2C1 [OLEANOLIC_ACID]	731
C[C@H]1OC(=O)CC[C@@H]2[C@]1(C)CC[C@H]1[C@@]2(C)CC[C@@]2(C)[C@@H]3CC(C)(C)CC[C@]3(C)CC[C@]12C [FRIEDELIN-3,4-LACTONE]	482
CC1(C)[C@@H](O)CC[C@]2(C)[C@H]3C(=O)C=C4[C@@H]5C[C@@](C)(C(=O)O)CC[C@]5(C)CC[C@@]4(C)[C@]3(C)CC[C@@H]12 [ENOXOLONE]	650
Nc1ccn([C@H]2CS[C@@H](CO)O2)c(=O)n1	876
CC1(C)CC[C@@]23CC[C@]4(C)[C@@](OC2=O)([C@@H]3C1)[C@@H](O)C[C@@H]1[C@@](C)(CCC(=O)O)[C@H](C(C)(C)O)CC[C@]14C	452
C[C@H]1[C@H](C)CC[C@]2(C(=O)O)CC[C@]3(C)C(=CC[C@@H]4[C@@](C)(CCC(=O)O)[C@H](C(C)(C)O)CC[C@]43C)[C@H]12	461

Test system: not listed separately
Test: Selectivity index, ratio of CC50 for human HepG2.215 cells to IC50 for Hepatitis B virus infected in human HepG2.215 cells assessed as inhibition of HBsAg secretion
Type: toxicity, cell-based
Conditions: HepG2.2.15 cells (Hepatitis B virus infected), read-out: Ratio CC50/IC50

Structure (SMILES)	selectivity ratio
CC1(C)CC[C@]2(C(=O)O)CC[C@]3(C)C(=CC(=O)[C@@H]4[C@@]5(C)CCC(=O)OC(C)(C)[C@@H]5CC[C@]43C)[C@@H]2C1	1.81
C[C@H]1[C@H](C)CC[C@]2(C(=O)O)CC[C@]3(C)C(=CC[C@@H]4[C@@]5(C)CCC(=O)OC(C)(C)[C@@H]5CC[C@]43C)[C@H]12	1.43
CC1(C)CC[C@]2(C(=O)O)CC[C@]3(C)C(=CC[C@@H]4[C@@]5(C)CC[C@H](O)C(C)(C)[C@@H]5CC[C@]43C)[C@@H]2C1 [OLEANOLIC_ACID]	0.53
C[C@H]1OC(=O)CC[C@@H]2[C@]1(C)CC[C@H]1[C@@]2(C)CC[C@@]2(C)[C@@H]3CC(C)(C)CC[C@]3(C)CC[C@]12C [FRIEDELIN-3,4-LACTONE]	0.63
CC1(C)[C@@H](O)CC[C@]2(C)[C@H]3C(=O)C=C4[C@@H]5C[C@@](C)(C(=O)O)CC[C@]5(C)CC[C@@]4(C)[C@]3(C)CC[C@@H]12 [ENOXOLONE]	1.27
CC1(C)CC[C@@]23CC[C@]4(C)[C@@](OC2=O)([C@@H]3C1)[C@@H](O)C[C@@H]1[C@@](C)(CCC(=O)O)[C@H](C(C)(C)O)CC[C@]14C	1.32
C[C@H]1[C@H](C)CC[C@]2(C(=O)O)CC[C@]3(C)C(=CC[C@@H]4[C@@](C)(CCC(=O)O)[C@H](C(C)(C)O)CC[C@]43C)[C@H]12	1.13

Test system: Hepatitis B virus
Test: Antiviral activity against Hepatitis B virus infected in human HepG2.215 cells assessed as inhibition of HBeAg secretion after 3 days by ELISA
Type: functional, organism-based
Conditions: HepG2.2.15, 72 h

IC50 [µM]	Structure (SMILES)
0.14	CC1(C)CC[C@]2(C(=O)O)CC[C@]3(C)C(=CC(=O)[C@@H]4[C@@]5(C)CCC(=O)OC(C)(C)[C@@H]5CC[C@]43C)[C@@H]2C1
176	C[C@H]1[C@H](C)CC[C@]2(C(=O)O)CC[C@]3(C)C(=CC[C@@H]4[C@@]5(C)CCC(=O)OC(C)(C)[C@@H]5CC[C@]43C)[C@H]12
814	CC1(C)CC[C@]2(C(=O)O)CC[C@]3(C)C(=CC[C@@H]4[C@@]5(C)CC[C@H](O)C(C)(C)[C@@H]5CC[C@]43C)[C@@H]2C1 [OLEANOLIC_ACID]
790	C[C@H]1OC(=O)CC[C@@H]2[C@]1(C)CC[C@H]1[C@@]2(C)CC[C@@]2(C)[C@@H]3CC(C)(C)CC[C@]3(C)CC[C@]12C [FRIEDELIN-3,4-LACTONE]
806	CC1(C)[C@@H](O)CC[C@]2(C)[C@H]3C(=O)C=C4[C@@H]5C[C@@](C)(C(=O)O)CC[C@]5(C)CC[C@@]4(C)[C@]3(C)CC[C@@H]12 [ENOXOLONE]
112	CC1(C)CC[C@@]23CC[C@]4(C)[C@@](OC2=O)([C@@H]3C1)[C@@H](O)C[C@@H]1[C@@](C)(CCC(=O)O)[C@H](C(C)(C)O)CC[C@]14C
384	C[C@H]1[C@H](C)CC[C@]2(C(=O)O)CC[C@]3(C)C(=CC[C@@H]4[C@@](C)(CCC(=O)O)[C@H](C(C)(C)O)CC[C@]43C)[C@H]12

Structure (SMILES)	IC50 [µM]
Nc1ccn([C@H]2CS[C@@H](CO)O2)c(=O)n1	1440

Test system: not listed separately
Test: Selectivity index, ratio of CC50 for human HepG2.215 cells to IC50 for Hepatitis B virus infected in human HepG2.215 cells assessed as reduction in covalently closed circular DNA level
Type: toxicity, cell-based
Conditions: HepG2.2.15 cells (Hepatitis B virus infected), read-out: Ratio CC50/IC50

Structure (SMILES)	selectivity ratio
CC1(C)CC[C@]2(C(=O)O)CC[C@]3(C)C(=CC(=O)[C@@H]4[C@@]5(C)CCC(=O)OC(C)(C)[C@@H]5CC[C@]43C)[C@@H]2C1	17.4

Test system: Hepatitis B virus
Test: Antiviral activity against Hepatitis B virus infected in human HepG2.215 cells assessed as reduction in covalently closed circular DNA level after 9 days by real time QF-PCR analysis
Type: functional, organism-based
Conditions: HepG2.2.15, 216 h

IC50 [µM]	Structure (SMILES)
33.5	CC1(C)CC[C@]2(C(=O)O)CC[C@]3(C)C(=CC(=O)[C@@H]4[C@@]5(C)CCC(=O)OC(C)(C)[C@@H]5CC[C@]43C)[C@@H]2C1

Test system: not listed separately
Test: Selectivity index, ratio of CC50 for human HepG2.215 cells to IC50 for Hepatitis B virus infected in human HepG2.215 cells assessed as inhibition of HBeAg secretion
Type: toxicity, cell-based
Conditions: HepG2.2.15 cells (Hepatitis B virus infected), read-out: Ratio CC50/IC50

Structure (SMILES)	selectivity ratio
CC1(C)CC[C@]2(C(=O)O)CC[C@]3(C)C(=CC(=O)[C@@H]4[C@@]5(C)CCC(=O)OC(C)(C)[C@@H]5CC[C@]43C)[C@@H]2C1	> 200
C[C@H]1[C@H](C)CC[C@]2(C(=O)O)CC[C@]3(C)C(=CC[C@@H]4[C@@]5(C)CCC(=O)OC(C)(C)[C@@H]5CC[C@]43C)[C@H]12	2.3
CC1(C)CC[C@]2(C(=O)O)CC[C@]3(C)C(=CC[C@@H]4[C@@]5(C)CC[C@H](O)C(C)(C)[C@@H]5CC[C@]43C)[C@@H]2C1 [OLEANOLIC_ACID]	0.9
C[C@H]1OC(=O)CC[C@@H]2[C@]1(C)CC[C@H]1[C@@]2(C)CC[C@@]2(C)[C@@H]3CC(C)(C)CC[C@]3(C)CC[C@]12C [FRIEDELIN-3,4-LACTONE]	0.61
CC1(C)[C@@H](O)CC[C@]2(C)[C@H]3C(=O)C=C4[C@@H]5C[C@@](C)(C(=O)O)CC[C@]5(C)CC[C@@]4(C)[C@]3(C)CC[C@@H]12 [ENOXOLONE]	0.81
CC1(C)CC[C@@]23CC[C@]4(C)[C@@](OC2=O)([C@@H]3C1)[C@@H](O)C[C@@H]1[C@@](C)(CCC(=O)O)[C@H](C(C)(C)O)CC[C@]14C	4.04
C[C@H]1[C@H](C)CC[C@]2(C(=O)O)CC[C@]3(C)C(=CC[C@@H]4[C@@](C)(CCC(=O)O)[C@H](C(C)(C)O)CC[C@]43C)[C@H]12	1.2

Test system: Hepatitis B virus
Test: Antiviral activity against Hepatitis B virus infected in human HepG2.215 cells assessed as reduction in cellular viral DNA level at 25 uM after 9 days by real time QF-PCR analysis relative to control
Type: functional
Conditions: not given

Structure (SMILES)	inhibition
CC1(C)CC[C@@]23CC[C@]4(C)[C@@](OC2=O)([C@@H]3C1)[C@@H](O)C[C@@H]1[C@@](C)(CCC(=O)O)[C@H](C(C)(C)O)CC[C@]14C	Active

Same assay, conditions: HepG2.2.15, 216 h

Structure (SMILES)	inhibition at 25 µM [%]
CC1(C)CC[C@]2(C(=O)O)CC[C@]3(C)C(=CC(=O)[C@@H]4[C@@]5(C)CCC(=O)OC(C)(C)[C@@H]5CC[C@]43C)[C@@H]2C1	82.6
Nc1ccn([C@H]2CS[C@@H](CO)O2)c(=O)n1	92.8
